Experiment [1] addresses T1, Prothrombin (Homo sapiens, UniProt P00734). The experiment in a line: Inhibition of human thrombin pre-incubated for 10 mins before Ac-FVR-AMC substrate addition and measured after 10 mins by fluorescence based assay.
Experiment [2] concerns the target T1, Prothrombin. The experiment can be described thus: Inhibition of human thrombin at 1 ug/ml pre-incubated for 10 mins before Ac-FVR-AMC substrate addition and measured after 10 mins by fluorescence based assay.
The species entered for the next experiment is Rattus norvegicus. The experiment can be described thus: Anticoagulant activity in rat assessed as inhibition of arteriovenous thrombosis at 0.5 mg/ml after 15 mins relative to control. The class given is functional.

Consider `CCn1c(CNc2ccc(C(=N)N)cc2)nc2cc(C(=O)N(CCC(=O)O)c3ccc(F)cc3F)ccc21`, for which the IC50 against Prothrombin [1] was 4.23 nM. Besides, on Prothrombin [2], the inhibition was more than 90%.

For `CCn1c(CNc2ccc(C(=N)N)cc2)nc2cc(C(=O)N(CCC(=O)O)c3ccc(C)cc3C)ccc21`, at Prothrombin [1], it took 16.4 nM to reach half-maximal inhibition (IC50). At Prothrombin [2], this compound registered an inhibition of more than 90%.

The compound `CCn1c(CNc2ccc(C(=N)N)cc2)nc2cc(C(=O)N(CCC(=O)O)c3ccccc3)ccc21` returned an IC50 at Prothrombin [1] of 4.69 nM. Moreover, the inhibition at Prothrombin [2] is more than 90%.

Regarding `Cn1c(CNc2ccc(C(=N)N)cc2)nc2cc(C(=O)N(CCC(=O)O)c3ccccn3)ccc21` [DABIGATRAN], the “inhibition (INH)” value in the experiment filed under Rattus norvegicus is on record as 85.07%.

`CCn1c(CNc2ccc(C(=N)N)cc2)nc2cc(C(=O)N(CCC(=O)O)c3ccc(F)c(C)c3)ccc21` came in with a concentration for half-maximal inhibition (IC50) against Prothrombin [1] of 6.27 nM. Further, at Prothrombin [2], the inhibition is more than 90%.

Take `CCn1c(CNc2ccc(C(=N)N)cc2)nc2cc(C(=O)N(CCC(=O)O)c3ccccc3C)ccc21`: it took 3.11 nM to reach half-maximal inhibition against Prothrombin [1] (IC50). In the experiment filed under Rattus norvegicus, the “inhibition (INH)” value was 77.93%. Moreover, at Prothrombin [2], the inhibition was more than 90%.

As for `CCn1c(CNc2ccc(C(=N)N)cc2)nc2cc(C(=O)N(CCC(=O)O)c3cccc(C)c3)ccc21`, half-maximal inhibition at Prothrombin [1] (IC50) required 2.13 nM. The compound also showed an inhibition against Prothrombin [2] of more than 90%.

`CCn1c(CNc2ccc(C(=N)N)cc2)nc2cc(C(=O)N(CCC(=O)O)c3cccc(C)c3C)ccc21` gave an IC50 against Prothrombin [1] of 6.59 nM. This compound also came in with an inhibition against Prothrombin [2] of more than 90%.

Turning to `CCn1c(CNc2ccc(C(=N)N)cc2)nc2cc(C(=O)N(CCC(=O)O)c3cc(C)ccn3)ccc21`, inhibition against Prothrombin [1] was half-maximal at 1.62 nM (IC50). Besides, the inhibition against Prothrombin [2] was more than 90%.

In turn, `CCn1c(CNc2ccc(C(=N)N)cc2)nc2cc(C(=O)N(CCC(=O)O)c3cccc(C)n3)ccc21` registered an IC50 at Prothrombin [1] of 0.96 nM. Moreover, the “inhibition (INH)” value in the experiment listed under Rattus norvegicus was found to be 85.35%. Further, at Prothrombin [2], the inhibition was more than 90%.

As to `CCn1c(CNc2ccc(C(=N)N)cc2)nc2cc(C(=O)N(CCC(=O)O)c3ccc(C)cc3)ccc21`, 4.98 nM corresponded to half-maximal inhibition on Prothrombin [1] (IC50). For the same compound, the inhibition on Prothrombin [2] was more than 90%.

Compound `CCn1c(CNc2ccc(C(=N)N)cc2)nc2cc(C(=O)N(CCC(=O)O)c3c(C)cccc3C)ccc21` showed an IC50 on Prothrombin [1] of 3.1 nM. On Prothrombin [2], this compound came in with an inhibition of more than 90%.

What is called IC50 is the midpoint of a concentration-inhibition curve. High values mean weaker potency in that assay, low ones greater potency in that assay. One may read the inhibition as how much of the control response was suppressed.

Source of the values: ChEMBL document CHEMBL3853299 (Eur J Med Chem, 2016).
